Each structure is given as a SMILES string.

Holding throughout (type): cell-based, Human
Data set [1] relates to PC3 cells. In words: JC-1 assay of mitochondrial membrane potential (Δψm), live cell imaging. Conditions: for JC-1 Green:Red fluorescence ratio: 6 h. An excerpt: An early indication of the initiation of cellular apoptosis is the collapse in the electrochemical gradient across the mitochondrial membrane, as measured by the change in the Δψm (Perry et al., BioTechniques 50:98-115, 2011). […] The potential-sensitive color shift is due to the concentration dependent formation of red fluorescent “J aggregates.” Mitochondrial depolarization is indicated by an increase in the green/red fluorescence intensity ratio. Live cell imaging of prostate cancer (PCa) PC3 cells treated with Na-DCA (150 μM), TPP-DCA (150 μM), or MITO-DCA (50 μM), followed by staining with JC-1, and a comparative analysis of the JC-1 green/red fluorescence ratio from PC3 cells in response to these three DCA analogues are represented in FIG. 3. […] Quantification of fluorescence intensities was carried out using ImageJ and the corrected total cell fluorescence (CTCF) values are represented as histograms (FIG. 3).
PC3 cells were cultured on a live cell imaging glass bottom dish at a density of 1×10^6 cells/mL and allowed to grow overnight at 37° C. Cells were treated with 150 μM Na-DCA, 150 μM TPP-DCA, and 50 μM MITO-DCA for 6 h at 37° C. A solution of JC-1 reagent (10 μg/mL in RPMI) was added and incubation was carried out at 37° C. for 20 min. The cells were washed 3 times with PBS, and live cell imaging was performed in phenol red free RPMI media.

Data set [2] has as its system MSC cells. In words: MTT cytotoxicity assay on normal cells. Conditions: 72 h. How it is done:
The cytotoxic behaviors of MITO-DCA, TPP-DCA, Na-DCA, and TPP-Tris-(OH)3 were evaluated using the MTT assay against PC3, DU145, LNCaP, and MSC cells. Cells (2000 cells/well for PC3, DU145, and MSC cells; 5000 cells/well for LNCaP) were seeded on a 96-well plate in 100 μL of desired medium and incubated for 24 h. The cells were treated with different DCA compounds and TPP-Tris-(OH)3 at varying concentrations and incubated for 72 h at 37° C. The cells were then treated with 20 μL of MTT (5 mg/mL in PBS) for 5 h. The medium was removed, the cells were lysed with 100 μL of DMSO, and the absorbance of the purple tormazan was recorded at 550 nm using a Bio-Tek Synergy HT microplate reader. Each well was performed in triplicate. All experiments were repeated three times. Cytotoxicity was expressed as mean percentage increase relative to the unexposed control±SD. Control values were set at 0% cytotoxicity or 100% cell viability. Cytotoxicity data (where appropriate) was fitted to a sigmoidal curve and a three parameters logistic model used to calculate the IC50, which is the concentration of chemotherapeutics causing 50% inhibition in comparison to untreated controls. The mean IC50 is the concentration of agent that reduces cell growth by 50% under the experimental conditions and is the average from at least three independent measurements that were reproducible and statistically significant. The IC50 values were reported at ±99% confidence intervals. This analysis was performed with GraphPad Prism (San Diego, U.S.A).

Data set [3] concerns PC3 cells. In words: Intracellular lactate determination. Conditions: 6 h. The source says: Cytosolic metabolism of glucose to pyruvate occurs before its entry into mitochondria for oxidative phosphorylation. However, if not metabolized through oxidative phosphorylation as found in cancer, pyruvate gets converted by lactate dehydrogenase through glycolysis to lactate. Glycolysis in the absence of oxidative phosphorylation in cancer causes rise in lactate concentration. To test the ability of MITO-DCA to switch glucose metabolism from glycolysis to oxidative phosphorylation in cancer cells, intracellular lactate levels in glycolytic PC3 cells were measured and compared the value with those observed in less glycolytic LNCaP and normal MSC cells (FIG. 5A). To understand the importance of mitochondria targeting ligand and to explore the importance of a Tris platform to increase number of DCA molecule per targeting ligand, the parent drug Na-DCA and TPP-DCA were used as controls. Treatment of PC3 cells with 50 μM of MITO-DCA for 6 h reduced the intracellular lactate levels by 58±5%. […] Pronounced lactate concentration differences were observed between […] glycolytic PC3 and healthy MSC cells (FIG. 5A). […] None of the DCA compounds has any effect on the lactate levels in MSC cells (FIG. 5A).
PC3, LNCaP, and MSC cells were seeded at a density of 1×10^6 cells/mL on each well of a 12 well plate and allowed to grow overnight at 37° C. under 5% CO2. Cells were treated with 150 μM Na-DCA, 150 μM TPP-DCA, and 50 μM MITO-DCA for 6 h at 37° C. After 6 h, the media was removed and the cells were homogenized. The lysate was added to the enzyme and substrate working reagent mixture and incubated for 30 min. Lactate concentration was measured using Bio-Tek Synergy HT microplate reader at 450 nm and comparing to a standard curve.

Take `O=C(OCCC[P+](c1ccccc1)(c1ccccc1)c1ccccc1)C(Cl)Cl.[Br-]` [TPP-DCA]: in data set [1] (150 μM), the “Change in Δψm (JC-1 imaging)” value is given as “showed red fluorescence in most cells” and the “JC-1 Green:Red fluorescence ratio” value is recorded as 0.49±0.09. In addition, the “Toxicity in normal MSC cells” value in data set [2] is on record as “did not show any toxic effects”. Also, in data set [3] (150 μM), the “Reduction of intracellular lactate levels” value was determined as 30±2%.
Consider `O=C(CCCCC[P+](c1ccccc1)(c1ccccc1)c1ccccc1)NC(COC(=O)C(Cl)Cl)(COC(=O)C(Cl)Cl)COC(=O)C(Cl)Cl.[Br-]` [MITO-DCA], for which, in data set [1] (50 μM), the “Change in Δψm (JC-1 imaging)” value is given as “induced marked changes in Δψm” and the “JC-1 Green:Red fluorescence ratio” value came to 3.96±0.96. For the same compound, the “Toxicity in normal MSC cells” value in data set [2] was “did not show any toxic effects”. In addition, in data set [3] (50 μM), the “Reduction of intracellular lactate levels” value was 58±5%.

The record behind these values is US10004809B2, “Precise delivery of therapeutic agents to cell mitochondria for anti-cancer therapy” (UNIVERSITY OF GEORGIA RESEARCH FOUNDATION, INC., priority 2013, dated 2018).
